According to patent US10206394B2, “Herbicidal compounds” (Syngenta Participations AG, priority 2014, dated 2019):
Like-named read-outs stand apart in the source and are kept apart here.

What was measured:
Assay in all cases: Glasshouse assay for herbicidal activity (pre- and post-emergence), percentage phytotoxicity
Assay type in all cases: in vivo
[1] = system: Alopecurus myosuroides (ALOMY); settings: Alopecurus myosuroides, Rate 250 g/ha, 100%=total damage, 0%=no damage
Description: (§1) Test—Glasshouse Assay for Herbicidal Activity
(§2) Seeds of a variety of monocotyledonous and dicotyledonous test plants are sown in standard soil in pots. The plants are cultivated for one day (for pre-emergence (PRE)) or for about 12 days (for post-emergence (POST)) under controlled conditions in a glasshouse (warm climate species at 24/18° C., cool climate species at 20/16° C., both at day/night; 16 hours light; 65% humidity).
(§3) The test plants are then grown on, in a glasshouse (greenhouse) under controlled conditions (warm climate species at 24/18° C., cool climate species at 20/16° C., both at day/night; 16 hours light; 65% humidity) and are watered twice daily. 15 days after application of the test herbicide (15 DAA) (for post-emergence), and 20 days after application of the test herbicide (20 DAA) (for pre-emergence), the test plants are evaluated visually, and an assessed percentage phytotoxicity score is given for each herbicidal application on each plant species (with 100%=total damage to plant; 0%=no damage to plant).
(§4) The plant species tested are as follows: Alopecurus myosuroides (ALOMY), Avena fatua (AVEFA), Lolium perenne (LOLPE), Echinochloa crus-galli (ECHCG).

Lolium perenne (LOLPE) = settings: Lolium perenne, Rate 250 g/ha, 100%=total damage, 0%=no damage
Description: as §1, §2, §3, §4

[2] = system: Echinochloa crus-galli (ECHCG); settings: Echinochloa crus-galli, Rate 250 g/ha, 100%=total damage, 0%=no damage
Description: as §1, §2, §3, §4

Avena fatua (AVEFA) = settings: Avena fatua, Rate 250 g/ha, 100%=total damage, 0%=no damage
Description: as §1, §2, §3, §4

[3] = post-emergence, 360 h, post-emergence, assessed visually 15 DAA, read-out: Post-emergence herbicidal activity (percentage phytotoxicity) ALOMY POST
[4] = pre-emergence, 480 h, pre-emergence, assessed visually 20 DAA, read-out: Pre-emergence herbicidal activity (percentage phytotoxicity) ALOMY PRE
[5] = post-emergence, 360 h, post-emergence, assessed visually 15 DAA, read-out: Post-emergence herbicidal activity (percentage phytotoxicity) LOLPE POST
[6] = pre-emergence, 480 h, pre-emergence, assessed visually 20 DAA, read-out: Pre-emergence herbicidal activity (percentage phytotoxicity) LOLPE PRE
[7] = post-emergence, 360 h, post-emergence, assessed visually 15 DAA, read-out: Post-emergence herbicidal activity (percentage phytotoxicity) ECHCG POST
[8] = pre-emergence, 480 h, pre-emergence, assessed visually 20 DAA, read-out: Pre-emergence herbicidal activity (percentage phytotoxicity) ECHCG PRE
[9] = post-emergence, 360 h, post-emergence, assessed visually 15 DAA, read-out: Post-emergence herbicidal activity (percentage phytotoxicity) AVEFA POST
[10] = pre-emergence, 480 h, pre-emergence, assessed visually 20 DAA, read-out: Pre-emergence herbicidal activity (percentage phytotoxicity) AVEFA PRE
[11] = post-emergence, 360 h, post-emergence, visual assessment 15 DAA, read-out: Post-emergence herbicidal activity (percentage phytotoxicity) ALOMY POST
[12] = pre-emergence, 480 h, pre-emergence, visual assessment 20 DAA, read-out: Pre-emergence herbicidal activity (percentage phytotoxicity) ALOMY PRE
[13] = post-emergence, 360 h, post-emergence, visual assessment 15 DAA, read-out: Post-emergence herbicidal activity (percentage phytotoxicity) LOLPE POST
[14] = pre-emergence, 480 h, pre-emergence, visual assessment 20 DAA, read-out: Pre-emergence herbicidal activity (percentage phytotoxicity) LOLPE PRE
[15] = post-emergence, 360 h, post-emergence, visual assessment 15 DAA, read-out: Post-emergence herbicidal activity (percentage phytotoxicity) ECHCG POST
[16] = pre-emergence, 480 h, pre-emergence, visual assessment 20 DAA, read-out: Pre-emergence herbicidal activity (percentage phytotoxicity) ECHCG PRE
[17] = post-emergence, 360 h, post-emergence, visual assessment 15 DAA, read-out: Post-emergence herbicidal activity (percentage phytotoxicity) AVEFA POST
[18] = pre-emergence, 480 h, pre-emergence, visual assessment 20 DAA, read-out: Pre-emergence herbicidal activity (percentage phytotoxicity) AVEFA PRE

| SMILES | pest or weed control at 250 g/ha [1, 3] [%] | pest or weed control at 250 g/ha [1, 4] [%] | pest or weed control at 250 g/ha (Lolium perenne (LOLPE); [5]) [%] | pest or weed control at 250 g/ha (Lolium perenne (LOLPE); [6]) [%] | pest or weed control at 250 g/ha [2, 7] [%] | pest or weed control at 250 g/ha [2, 8] [%] | pest or weed control at 250 g/ha (Avena fatua (AVEFA); [9]) [%] | pest or weed control at 250 g/ha (Avena fatua (AVEFA); [10]) [%] | pest or weed control at 250 g/ha [1, 11] [%] | pest or weed control at 250 g/ha [1, 12] [%] | pest or weed control at 250 g/ha (Lolium perenne (LOLPE); [13]) [%] | pest or weed control at 250 g/ha (Lolium perenne (LOLPE); [14]) [%] | pest or weed control at 250 g/ha [2, 15] [%] | pest or weed control at 250 g/ha [2, 16] [%] | pest or weed control at 250 g/ha (Avena fatua (AVEFA); [17]) [%] | pest or weed control at 250 g/ha (Avena fatua (AVEFA); [18]) [%] |
| --- | --- | --- | --- | --- | --- | --- | --- | --- | --- | --- | --- | --- | --- | --- | --- | --- |
| CC#Cc1cc(C)c(C2C(=O)CC(CC(=O)NCC(C)(C)C)C2=O)c(C)c1 (stereo not shown) [Compound A65] | 90 | 100 | 80 | 90 | 100 | 100 | 90 | 70 |  |  |  |  |  |  |  |  |
| Cc1cc(C)c(C2C(=O)CC(CC(=O)NCc3ccc(C)o3)C2=O)c(C)c1 (stereo not shown) [Compound A97] | 70 | 30 | 70 | 90 | 0 | 0 | 20 | 0 |  |  |  |  |  |  |  |  |
| Cc1cc(-c2ccc(Cl)cn2)cc(C)c1C1C(=O)CC(CC(=O)NCC2CC2)C1=O (stereo not shown) [Compound B362] |  |  |  |  |  |  |  |  | 90 | 100 | 90 | 100 | 100 | 100 | 100 | 100 |
| Cc1cc(-c2ccc(F)cn2)cc(C)c1C1C(=O)CC(CC(=O)N(C)C(C)(C)C)C1=O (stereo not shown) [Compound B393] |  |  |  |  |  |  |  |  | 90 | 100 | 90 | 100 | 100 | 100 | 100 | 90 |
| Cc1cc(-c2ncc(F)cn2)cc(C)c1C1C(=O)CC(CC(=O)NCc2cccs2)C1=O (stereo not shown) [Compound A141] | 90 | 90 | 90 | 100 | 100 | 100 | 100 | 90 |  |  |  |  |  |  |  |  |
